# Paper PMC3587566, “The Ultra-Potent and Selective TLR8 Agonist VTX-294 Activates Human Newborn and Adult Leukocytes” (PLoS ONE, 2013)
# Like-named read-outs stand apart in the source and are kept apart here.
# How the values were obtained:
# Type in all cases: cell-based
# [1] = system: human newborn cord blood; test: Newborn whole blood assay, TNF / IL-1β ELISA; settings: mean, n = 4-9
# [2] = system: human adult peripheral blood; test: Adult whole blood assay, TNF / IL-1β ELISA; settings: baseline subtracted
# From the text: (§1) Peripheral blood was collected from healthy adult volunteers, while human newborn cord blood was collected immediately after Cesarean section delivery of the placenta. Births to HIV-positive mothers were excluded. Human experimentation guidelines of the U.S. Department of Health and Human Services, The Brigham & Women’s Hospital, and Boston Children’s Hospital were observed, following protocols approved by the local institutional review boards. Human blood was anti-coagulated with 15–20 units/ml pyrogen-free sodium heparin (American Pharmaceutical Partners, Inc., Schaumberg, IL). All blood products were kept at room temperature and processed within 4 hrs of collection.
# (§2) For assessment of TLR agonist activity in whole blood, we used an adaptation of the method of Kollmann et al., [33]. […] Suspensions containing 200 µl/well were gently mixed by pipetting and incubated for 2–24 h at 37°C in a humidified incubator at 5% CO2. After culture, plates were centrifuged at 500×g and 110–150 µl of supernatant was carefully removed by pipetting without disturbing the cell pellet. Supernatants derived from human leukocyte stimulations were assayed by ELISA for TNF (BD Biosciences, San Jose, CA, USA) and IL-1β (eBiosciences, San Diego, CA). Additionally, WB supernatants were analysed by Multi-Analyte Profiling (MAP). Briefly, supernatant samples were frozen at −80°C and submitted to Myriad RBM (Austin, TX, USA) for screening with a modified Human InflammationMAP® v. 1.6 antigen panel, which analyzed the samples for the presence of 98 analytes associated with inflammation. The minimum threshold for each analyte was set at the minimum detectable dose for that particular assay (defined as three standard deviations above the mean background).
# (§3) Compound concentrations are shown in µM, except for MPLA, which are shown in ng/ml. Data are shown as mean ± SEM of n = 5–8.
# [3] = system: human neonatal MoDCs; test: Neonatal monocyte-derived dendritic cell (MoDC) stimulation, TNF ELISA; settings: 24 h
# From the text: Heparinized human newborn cord blood or adult peripheral blood was layered onto Ficoll-Hypaque gradients (Ficoll-Paque PREMIUM, GE Healthcare, Waukesha, WI) to collect CBMC or peripheral blood mononuclear cell layers (PBMC), respectively. Monocytes were isolated from mononuclear cell fractions by positive selection by magnetic microbeads according to the manufacturer’s instructions (Miltenyi Biotec, Auburn, CA) using CD14 or CD33 as a pan-marker for monocytes. Monocyte preparations were >95% pure as assessed by flow cytometry for CD14 as previously described. […] After 5–6 days, immature MoDCs (HLA-DR^+, CD14^−, DC-SIGN^+ as measured by flow cytometry) of >90% purity were harvested by gently pipetting only the loosely adherent fraction and re-plated (10^5 cells/well) in 96-well U-bottom plates in the presence or absence of TLR agonists.
# Following TLR agonist stimulation, MoDCs were resuspended in staining buffer (1×PBS, 0.5% human serum albumin (HSA)) and stained for 30 min at 4°C in the dark (1.5×10^5/per staining) with fluorophore-labeled antibodies (FITC/HLA-DR and PE/CD86) (BD Biosciences). Cells were then centrifuged, washed, fixed (1% paraformaldehyde (PFA)) and filtered prior to flow cytometry analysis using a MoFlo Legacy cytometer (DakoCytomation, Fort Collins, CO) and analyzed using FlowJo software (Tree Star). […]
# [4] = system: human newborn cord blood; test: Newborn whole blood assay, TNF / IL-1β ELISA; settings: for Newborn WBA IL-1β / Newborn WBA TNF: baseline subtracted
# From the text: as §1, §2, §3
# [5] = system: human adult peripheral blood; test: Adult whole blood assay, TNF / IL-1β ELISA; settings: mean, n = 4-9; for EC50: Homo sapiens
molecule,measurement,setting,value
monophosphoryl lipid A [MPLA],Newborn WBA IL-1β EC50,[1],0.01148 µg/mL
same,Newborn WBA TNF EC50,[1],0.01457 µg/mL
same,Adult WBA IL-1β,[2]; agonist 0.1 ng/ml,5 pg/mL
same,Adult WBA TNF,[2]; agonist 0.1 ng/ml,128 pg/mL
same,Adult WBA IL-1β,[2]; agonist 0.3 ng/ml,27 pg/mL
same,Adult WBA TNF,[2]; agonist 0.3 ng/ml,33 pg/mL
same,Adult WBA IL-1β,[2]; agonist 1 ng/ml,95 pg/mL
same,Adult WBA TNF,[2]; agonist 1 ng/ml,215 pg/mL
same,Adult WBA IL-1β,[2]; agonist 10 ng/ml,763 pg/mL
same,Adult WBA TNF,[2]; agonist 10 ng/ml,3353 pg/mL
same,Adult WBA IL-1β,[2]; agonist 100 ng/ml,3153 pg/mL
same,Adult WBA TNF,[2]; agonist 100 ng/ml,9158 pg/mL
same,lowest concentration inducing MoDC TNF production (p<0.05 vs unstimulated),"[3]; tested 1, 10, 100 ng/ml",10 ng/mL
same,Newborn WBA IL-1β,[4]; agonist 0.1 ng/ml,0 pg/mL
same,Newborn WBA TNF,[4]; agonist 0.1 ng/ml,0 pg/mL
same,Newborn WBA IL-1β,[4]; agonist 0.3 ng/ml,0 pg/mL
same,Newborn WBA TNF,[4]; agonist 0.3 ng/ml,11 pg/mL
same,Newborn WBA IL-1β,[4]; agonist 1 ng/ml,24 pg/mL
same,Newborn WBA TNF,[4]; agonist 1 ng/ml,29 pg/mL
same,Newborn WBA IL-1β,[4]; agonist 10 ng/ml,682 pg/mL
same,Newborn WBA TNF,[4]; agonist 10 ng/ml,642 pg/mL
same,Newborn WBA IL-1β,[4]; agonist 100 ng/ml,1628 pg/mL
same,Newborn WBA TNF,[4]; agonist 100 ng/ml,3665 pg/mL
same,Adult WBA IL-1β EC50,[5],0.00159 µg/mL
same,Adult WBA TNF EC50,[5],0.01259 µg/mL
CCOCc1nc2c(N)nc3ccccc3c2n1CC(C)(C)O [R848],EC50,"[1]; Homo sapiens, read-out: Newborn WBA TNF EC50",1500 nM
same,Adult WBA IL-1β,[2]; agonist 0.1 μM,2 pg/mL
same,Adult WBA TNF,[2]; agonist 0.1 μM,132 pg/mL
same,Adult WBA IL-1β,[2]; agonist 0.3 μM,27 pg/mL
same,Adult WBA TNF,[2]; agonist 0.3 μM,750 pg/mL
same,Adult WBA IL-1β,[2]; agonist 1 μM,779 pg/mL
same,Adult WBA TNF,[2]; agonist 1 μM,6661 pg/mL
same,Adult WBA IL-1β,[2]; agonist 10 μM,4762 pg/mL
same,Adult WBA TNF,[2]; agonist 10 μM,13913 pg/mL
same,Adult WBA IL-1β,[2]; agonist 100 μM,4694 pg/mL
same,Adult WBA TNF,[2]; agonist 100 μM,9982 pg/mL
same,lowest concentration inducing MoDC TNF production,"[3]; tested 0.1, 0.3, 10 µM",10 µM
same,EC50,"[4]; Homo sapiens, mean, n = 4-9, read-out: Newborn WBA IL-1β EC50",6650 nM
same,Newborn WBA IL-1β,[4]; agonist 0.1 μM,0 pg/mL
same,Newborn WBA TNF,[4]; agonist 0.1 μM,0 pg/mL
same,Newborn WBA IL-1β,[4]; agonist 0.3 μM,9 pg/mL
same,Newborn WBA TNF,[4]; agonist 0.3 μM,0 pg/mL
same,Newborn WBA IL-1β,[4]; agonist 1 μM,285 pg/mL
same,Newborn WBA TNF,[4]; agonist 1 μM,2164 pg/mL
same,Newborn WBA IL-1β,[4]; agonist 10 μM,7442 pg/mL
same,Newborn WBA TNF,[4]; agonist 10 μM,33609 pg/mL
same,Newborn WBA IL-1β,[4]; agonist 100 μM,10822 pg/mL
same,Newborn WBA TNF,[4]; agonist 100 μM,20117 pg/mL
same,EC50,[5]; read-out: Adult WBA IL-1β EC50,1620 nM
same,EC50,[5]; read-out: Adult WBA TNF EC50,1040 nM
